Assay results published in US7649089B2, “Biodegradable oxidized cellulose esters and their uses as microspheres” (University of Iowa Research Foundation, priority 2001, dated 2010).
≈ marks a conversion by molar mass, not a printed value.

Columns and labels:
[1] = Solubility of 5-fluorouracil in pH 7.4 phosphate buffer saline; assay type: physicochemical; settings: aqueous buffer, pH 7.4 PBS, read-out: solubility in pH 7.4 phosphate buffer saline solution
[2] = Release studies of CPT microspheres in pH 7.4 PBS at 37 C, sink condition; assay type: physicochemical; settings: free drug
Description: OCA was prepared from oxidized (OC, COOH content 14% w/w) by treatment with a mixture of Ac2O/HOAC/H2SO4. The preparation of OCAM was achieved from a reaction between OCA and methanol using dicyclohexylcarbodiimide and 4,4′-dimethylaminopyridine as the catalysts. OCA and OCAM microspheres containing CPT were prepared by the emulsion/solvent evaporation method using the CH2Cl2—CH3OH mixture as a solvent and polyvinyl alcohol as an emulsifier. Microspheres were characterized by IR, scanning electron and confocal microscopes, and powder X-ray diffractometry. Dissolution studies were performed in pH 7.4 phosphate buffer-saline (PBS) at 37° C.
The release studies were performed under the sink condition in pH 7.4 PBS buffer at 37.0±0.2° C. At predetermined time intervals, 5.0 ml of the release medium was withdrawn. This was immediately replaced with an equal volume of the fresh PBS solution. The removed release medium was appropriated diluted with the mobile phase and analyzed by HPLC.

| solubility [1] [mg/mL] | Structure (SMILES) | time to dissolve [2] |
| --- | --- | --- |
| 14.9 (≈ 114 mM) | O=c1[nH]cc(F)c(=O)[nH]1 [5-fluorouracil] | – |
| – | CC[C@@]1(O)C(=O)OCc2c1cc1n(c2=O)Cc2cc3ccccc3nc2-1 [free CPT, camptothecin] | about 48 hours |
